Several values for one entry are separate records, joined by “and”; a condition that tells them apart may be missing. Equal entries are not always repeated.
Columns and labels:
[1] = phase II trial, dose modifications in ER+/ERBB2-negative cohort (safety population); type: in vivo, human
Protocol: (§1) Administration of 5 μg/kg filgrastim was allowed for treatment-limiting neutropenia, and loperamide was used to treat diarrhea but was not allowed prophylactically in cycle 1.
Incidence and grades of AEs for all patients were analyzed using the safety population which included all patients (eligible and ineligible) who received at least 1 dose of study drug. Toxic effects were reported and tabulated by numbers and frequencies for all related AEs. SAS statistical software version 9.4 (SAS Institute) was used for all data analysis. Data were analyzed from March through May 2019.

Pgp = Pgp (Homo sapiens, UniProt P08183); conditions: cell culture model; cited from earlier work
Sequence of Pgp (P08183 whole entry): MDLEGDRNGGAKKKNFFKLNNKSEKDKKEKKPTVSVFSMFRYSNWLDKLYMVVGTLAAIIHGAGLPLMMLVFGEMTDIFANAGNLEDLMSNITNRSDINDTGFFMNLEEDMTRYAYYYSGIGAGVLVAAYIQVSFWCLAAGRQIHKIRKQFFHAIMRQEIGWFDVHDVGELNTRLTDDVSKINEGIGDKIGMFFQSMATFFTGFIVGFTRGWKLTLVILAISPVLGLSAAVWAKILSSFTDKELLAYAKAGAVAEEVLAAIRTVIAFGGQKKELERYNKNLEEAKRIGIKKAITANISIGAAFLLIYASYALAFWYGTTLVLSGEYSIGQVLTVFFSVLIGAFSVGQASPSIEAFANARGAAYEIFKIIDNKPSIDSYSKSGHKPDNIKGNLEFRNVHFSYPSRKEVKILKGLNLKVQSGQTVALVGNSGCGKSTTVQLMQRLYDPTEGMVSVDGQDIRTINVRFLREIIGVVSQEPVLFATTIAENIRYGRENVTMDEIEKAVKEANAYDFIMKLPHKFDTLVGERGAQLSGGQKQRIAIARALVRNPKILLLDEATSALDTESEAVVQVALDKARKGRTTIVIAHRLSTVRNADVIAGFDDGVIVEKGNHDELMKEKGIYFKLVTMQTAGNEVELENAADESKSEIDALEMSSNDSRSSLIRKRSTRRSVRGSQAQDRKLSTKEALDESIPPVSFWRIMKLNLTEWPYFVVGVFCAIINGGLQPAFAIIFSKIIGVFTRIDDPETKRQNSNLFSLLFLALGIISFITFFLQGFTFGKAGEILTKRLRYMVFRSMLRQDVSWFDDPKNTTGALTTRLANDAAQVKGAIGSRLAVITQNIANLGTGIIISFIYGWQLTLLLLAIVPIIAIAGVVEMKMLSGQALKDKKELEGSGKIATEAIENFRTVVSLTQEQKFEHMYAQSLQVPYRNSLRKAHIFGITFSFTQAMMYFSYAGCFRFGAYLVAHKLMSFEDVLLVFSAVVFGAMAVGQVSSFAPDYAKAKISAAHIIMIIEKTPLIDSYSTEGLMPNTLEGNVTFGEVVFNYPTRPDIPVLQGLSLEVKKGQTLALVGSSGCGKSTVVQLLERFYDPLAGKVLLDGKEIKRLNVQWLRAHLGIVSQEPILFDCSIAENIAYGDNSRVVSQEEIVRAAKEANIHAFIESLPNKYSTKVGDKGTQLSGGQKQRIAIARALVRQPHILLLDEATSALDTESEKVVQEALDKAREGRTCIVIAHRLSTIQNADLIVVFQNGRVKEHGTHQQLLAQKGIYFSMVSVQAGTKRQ

[2] = system: breast cancer xenograft models; conditions: alisertib added to either paclitaxel or docetaxel; cited from earlier work
[3] = system: ER-positive, HER2-negative metastatic or locally recurrent breast cancer; assay: randomized phase II trial, ER+/HER2− cohort, efficacy; type: in vivo, human
Description: (§2) Other information about this phase II clinical trial is included in O'Shaughnessy et al., JAMA Network Open. 2021, 4(4):e214103, the entire contents of which are incorporated herein by reference.
Eligible patients were postmenopausal women aged 18 years or older with metastatic or unresectable locally recurrent breast cancer that was histologically confirmed as ER+/HER2− invasive breast cancer (any progesterone receptor status), with Ki67 greater than 15% in primary or metastatic tissue, or grade 3 TNBC, to enrich for more highly proliferative cancers that may be more dependent on AURKA. HER2− negative was defined as immunohistochemistry (IHC) status of 0, 1+, or 2+(if IHC was 2+, a negative FISH test was required with a ratio <2.0 and an average HER2 copy number <4.0 signals/cell). ER-negative and progesterone receptor (PR)-negative status was defined as ER and PR less than 1% nuclei positive by IHC. […] An Eastern Cooperative Group (ECOG) performance status of 0 or 1 and adequate hematologic, cardiac, renal, and liver function were required. Eligible patients were required to have measurable disease by Response Evaluation Criteria in Solid Tumors (RECIST v 1.1) criteria, or lytic or mixed blastic/lytic bone-only disease. Patients with untreated or progressing brain metastases, or those who required corticosteroids, were not eligible.
as §1
(§3) Computed tomography (CT) of chest, abdomen, and pelvis was performed at screening. Chest and abdominal CT imaging were then performed every 8 weeks after initiation of treatment for the first 32 weeks of treatment and every 12 weeks thereafter for the duration of the treatment period, and at End of Treatment (EoT). Pelvic CT imaging was obtained at subsequent tumor assessments only if pelvic metastases were identified at screening. Bone scans were obtained on all patients at screening and then every 12 weeks in patients with bone metastases on their baseline bone scan.
(§4) Patients were stratified as ER-positive, HER2-negative cohort and TN cohort based on results of ER, progesterone receptor, and HER2 measurements on their metastatic tissue, or, if not available, on their primary breast cancer tissue.
(§5) Patients' baseline demographic and disease characteristics were summarized for the intent-to-treat population, which included all patients registered on study and were described by means with SDs and medians with ranges for continuous variables and by numbers with percentages for categorical variables. PFS was defined as the time from date of registration in the study to the date of first progression of disease or the date of death. Patients whose disease had not progressed were censored at the last contact date. OS was measured from the date of registration to the date of death. PFS and OS were estimated using Kaplan-Meier methods with 95% CIs in the intent-to-treat population and compared by log-rank tests.
(§6) The protocol-defined evaluable population included all eligible patients who received at least 1 dose of study drug. CBR and ORR were examined using univariate and multivariate approaches with Fisher exact tests and the logistic regression models. The 95% CIs were estimated for CBR and ORR assuming binomial distribution. A χ^2 test was used to estimate the differences between CBRs and ORRs in the two arms.

[4] = system: TN metastatic or locally recurrent breast cancer; assay: randomized phase II trial, TN cohort, efficacy; type: in vivo, human
Description: as §2
Eligible patients were postmenopausal women aged 18 years or older with metastatic or unresectable locally recurrent breast cancer that was histologically confirmed as ER+/HER2− invasive breast cancer (any progesterone receptor status), with Ki67 greater than 15% in primary or metastatic tissue, or grade 3 TNBC, to enrich for more highly proliferative cancers that may be more dependent on AURKA. HER2− negative was defined as immunohistochemistry (IHC) status of 0, 1+, or 2+(if IHC was 2+, a negative FISH test was required with a ratio <2.0 and an average HER2 copy number <4.0 signals/cell). ER-negative and progesterone receptor (PR)-negative status was defined as ER and PR less than 1% nuclei positive by IHC. Patients may have been treated with 0 or 1 chemotherapy regimen for advanced disease and with neo/adjuvant taxane therapy at least 12 months before the development of metastatic disease. An Eastern Cooperative Group (ECOG) performance status of 0 or 1 and adequate hematologic, cardiac, renal, and liver function were required. Eligible patients were required to have measurable disease by Response Evaluation Criteria in Solid Tumors (RECIST v 1.1) criteria, or lytic or mixed blastic/lytic bone-only disease. Patients with untreated or progressing brain metastases, or those who required corticosteroids, were not eligible.
as §1, §3, §4
The TN and ER-positive, HER2-negative cohorts were analyzed independently, and no change to the statistical plan was made based on the underaccrual to the TN group.
as §5, §6

[5] = phase II trial, adverse events (safety population, CTCAE v4.03); type: in vivo, human
Protocol: Safety was assessed throughout the study. Adverse events were graded and reported according to the National Cancer Institute Common Terminology Criteria for Adverse Events (CTCAE version 4.03).

[6] = Arm 1 (paclitaxel plus alisertib), n=66
[7] = ER+/HER2− cohort, evaluable patients (P+A n=58, P n=62)
[8] = TN cohort, evaluable patients (P+A n=16, P n=12)
[9] = treatment-related, ER+/HER2− and TN cohorts

Which results are given for `COc1cc(Nc2ncc3c(n2)-c2ccc(Cl)cc2C(c2c(F)cccc2OC)=NC3)ccc1C(=O)O` [Alisertib, 4-{[9-chloro-7-(2-fluoro-6-methoxyphenyl)-5H-pyrimido[5,4-d][2]benzazepin-2-yl]amino}-2-methoxybenzoic acid]?
Patients with both dose delay and reduction [1, 6]: (62.1) %; Patients with dose delay alone [1, 6]: (18.2) %; Patients with dose discontinuation [1, 6]: (30.3) %; Patients with dose increased [1, 6]: (1.5) %; Patients with dose reduction alone [1, 6]: (7.6) %; Patients with both dose delay and reduction ([1]; Arm 1 (paclitaxel plus alisertib), n=66, listed as alisertib): 62.1%; Pgp-mediated efflux of paclitaxel (Pgp): inhibited Pgp-mediated efflux of paclitaxel; effect of combination in breast cancer xenograft models [2]: Synergistic or additive effects

What does the source list for `CC(=O)O[C@H]1C(=O)[C@@]2(C)[C@H]([C@H](OC(=O)c3ccccc3)[C@]3(O)C[C@H](OC(=O)[C@H](O)[C@@H](NC(=O)c4ccccc4)c4ccccc4)C(C)=C1C3(C)C)[C@]1(OC(C)=O)CO[C@@H]1C[C@@H]2O` [Paclitaxel, (2α,4α,5β,7β,10β,13α)-4,10-Bis(acetyloxy)-13-{[(2R,3S)-3-(benzoylamino)-2-hydroxy-3-phenylpropanoyl]oxy}-1,7-dihydroxy-9-oxo-5,20-epoxytax-11-en-2-yl benzoate]?
median (IQR) PFS in patients previously treated with palbociclib ([3]; 30 patients pretreated with palbociclib for MBC (16 P, 14 P+A), listed as paclitaxel alone): 5.6 (3.0-10.6) months and 5.6 months; CBR in patients pretreated with palbociclib ([3]; ER+/HER2− cohort): 37.5%; Best Overall Response: CR [3, 7]: 0%; Best Overall Response: PD [3, 7]: 8 (12.9) %; Best Overall Response: SD [3, 7]: 33 (53.2) %; CBR (CR + PR + SD ≥ 6 months) ([3]; ER+/HER2− cohort, evaluable patients (P+A n=58, P n=62), listed as P): 35 (56.5) %; CBR (CR + PR + SD ≥ 6 months) ([3]; ER+/HER2− cohort, evaluable patients (P+A n=58, P n=62), listed as paclitaxel alone): 56.5%; estimated PFS at 12 months ([3]; ER-positive, HER2-negative MBC): 15.4%; median (IQR) PFS ([3]; ER-positive, HER2-negative MBC, intent-to-treat, listed as paclitaxel alone): 7.1 (3.8-10.6) months and 7.1 months; median (IQR) OS ([3]; median follow-up 22 months): 25.1 (11.0-31.4) months; median (IQR) PFS ([4]; 35 patients with TN MBC, intent-to-treat, listed as paclitaxel alone): 5.7 (2.9-8.2) months and 5.7 months; Best Overall Response: CR [4, 8]: 0%; Best Overall Response: PD [4, 8]: 2 (16.7) %; Best Overall Response: PR [4, 8]: 5 (41.7) %; Best Overall Response: SD [4, 8]: 5 (41.7) %; CBR (CR + PR + SD ≥ 6 months) [4, 8]: 7 (58.3) %; ORR (CR + PR) [4, 8]: 5 (41.7) %; median (IQR) OS ([4]; median follow-up 13.7 months): 12.7 (6.8-23.5) months; Patients with both dose delay and reduction [1, 6]: (16.7) %; Patients with dose delay alone [1, 6]: (63.6) %; Patients with dose discontinuation [1, 6]: (16.7) %; Patients with dose increased [1, 6]: (3.0) %; Patients with dose reduction alone [1, 6]: (1.5) %; Patients with dose delay alone ([1]; Arm 1 (paclitaxel plus alisertib), n=66, listed as paclitaxel): 63.6%; Patients with both dose delay and reduction ([1]; Arm 2 (paclitaxel alone), n=70): (31.4) %; Patients with dose delay alone ([1]; Arm 2 (paclitaxel alone), n=70): (14.3) %; Patients with dose discontinuation ([1]; Arm 2 (paclitaxel alone), n=70): (11.4) %; Patients with dose increased ([1]; Arm 2 (paclitaxel alone), n=70): 0%; Patients with dose reduction alone ([1]; Arm 2 (paclitaxel alone), n=70): (2.9) %; Patients with both dose delay and reduction ([1]; Arm 2 (paclitaxel alone), n=70, listed as paclitaxel alone): 31.4%; grade 3 or 4 anemia, patients ([5]; all patients combined): 1.2%; grade 3 or 4 diarrhea, patients ([5]; all patients combined): 0%; grade 3 or 4 neutropenia, patients ([5]; all patients combined): 16.4%; grade 3 or 4 stomatitis or oral mucositis, patients ([5]; all patients combined): 0%; grade 3 or 4 neuropathy, patients ([5]; in vivo): 11.40%; patients who received standard-dose (5 μg/kg) filgrastim ([5]; in vivo): 15.70%; Anemia Grade1 [5, 9]: 5 (5.9) n (%); Anemia Grade2 [5, 9]: 5 (5.9) n (%); Anemia Grade3 [5, 9]: 1 (1.2) n (%); Anemia Grade4 [5, 9]: 0 n (%); Anemia Total [5, 9]: 11 (12.9) n (%); Diarrhea Grade1 [5, 9]: 9 (10.6) n (%); Diarrhea Grade2 [5, 9]: 2 (2.4) n (%); Diarrhea Grade3 [5, 9]: 0 n (%); Diarrhea Grade4 [5, 9]: 0 n (%); Diarrhea Total [5, 9]: 11 (12.9) n (%); Dizziness Grade1 [5, 9]: 2 (2.4) n (%); Dizziness Grade2 [5, 9]: 0 n (%); Dizziness Grade3 [5, 9]: 0 n (%); Dizziness Grade4 [5, 9]: 0 n (%); Dizziness Total [5, 9]: 2 (2.4) n (%); Fatigue Grade1 [5, 9]: 26 (30.6) n (%); Fatigue Grade2 [5, 9]: 6 (7.1) n (%); Fatigue Grade3 [5, 9]: 2 (2.4) n (%); Fatigue Grade4 [5, 9]: 0 n (%); Fatigue Total [5, 9]: 34 (40.0) n (%); Febrile neutropenia Grade1 [5, 9]: 0 n (%); Febrile neutropenia Grade2 [5, 9]: 0 n (%); Febrile neutropenia Grade3 [5, 9]: 0 n (%); Febrile neutropenia Grade4 [5, 9]: 0 n (%); Febrile neutropenia Total [5, 9]: 0 n (%); Headache Grade1 [5, 9]: 4 (4.7) n (%); Headache Grade2 [5, 9]: 1 (1.2) n (%); Headache Grade3 [5, 9]: 0 n (%); Headache Grade4 [5, 9]: 0 n (%); Headache Total [5, 9]: 5 (5.9) n (%); Leukopenia Grade1 [5, 9]: 2 (2.4) n (%); Leukopenia Grade2 [5, 9]: 1 (1.2) n (%); Leukopenia Grade3 [5, 9]: 2 (2.4) n (%); Leukopenia Grade4 [5, 9]: 0 n (%); Leukopenia Total [5, 9]: 5 (5.9) n (%); Mucositis oral Grade1 [5, 9]: 4 (4.7) n (%); Mucositis oral Grade2 [5, 9]: 0 n (%); Mucositis oral Grade3 [5, 9]: 0 n (%); Mucositis oral Grade4 [5, 9]: 0 n (%); Mucositis oral Total [5, 9]: 4 (4.7) n (%); Nausea Grade1 [5, 9]: 19 (22.4) n (%); Nausea Grade2 [5, 9]: 4 (4.7) n (%); Nausea Grade3 [5, 9]: 1 (1.2) n (%); Nausea Grade4 [5, 9]: 0 n (%); Nausea Total [5, 9]: 24 (28.2) n (%); Neuropathy Grade1 [5, 9]: 9 (12.9) n (%); Neuropathy Grade2 [5, 9]: 8 (11.4) n (%); Neuropathy Grade3 [5, 9]: 8 (11.4) n (%); Neuropathy Grade4 [5, 9]: 0 n (%); Neuropathy Total [5, 9]: 25 (35.7) n (%); Neutropenia Grade1 [5, 9]: 1 (1.2) n (%); Neutropenia Grade2 [5, 9]: 3 (3.5) n (%); Neutropenia Grade3 [5, 9]: 11 (12.9) n (%); Neutropenia Grade4 [5, 9]: 3 (3.5) n (%); Neutropenia Total [5, 9]: 18 (21.2) n (%); Stomatitis Grade1 [5, 9]: 7 (8.2) n (%); Stomatitis Grade2 [5, 9]: 0 n (%); Stomatitis Grade3 [5, 9]: 0 n (%); Stomatitis Grade4 [5, 9]: 0 n (%); Stomatitis Total [5, 9]: 7 (8.2) n (%); Thrombocytopenia Grade1 [5, 9]: 0 n (%); Thrombocytopenia Grade2 [5, 9]: 0 n (%); Thrombocytopenia Grade3 [5, 9]: 0 n (%); Thrombocytopenia Grade4 [5, 9]: 0 n (%); Thrombocytopenia Total [5, 9]: 0 n (%)
